Data reported in patent US20260042755A1, “GPR6 INVERSE AGONISTS” (MapLight Therapeutics, Inc., priority 2022, published 2026).

Key:
[1] = biological target: T1, GPR6 (Homo sapiens, UniProt P46095); test: GPR6 antagonist functional cAMP assay (LANCE Ultra cAMP TR-FRET, CHO cells stably expressing GPR6); format: cell-based
T1 construct: expressed in transfected cells; host or cells: CHO cells
Method in brief: (§1)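 Cells in Krebs-Ringer buffer with 0.1% BSA and 150 μM Ro 20-1724 PDE inhibitor were exposed to compounds for 45 min at 37 °C (0.1% DMSO). cAMP was read by TR-FRET at 665 nm; IC50s came from 4-parameter fits normalized to DMSO and reference compound.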

[2] = biological target: T2, GPR3 (Homo sapiens, UniProt P46089); test: GPR3 antagonist functional cAMP assay (LANCE Ultra cAMP TR-FRET, CHO cells stably expressing GPR3); format: cell-based
T2 construct: expressed in transfected cells; host or cells: CHO cells
Method in brief: as §1

[3] = procedure as described in Example 24
[4] = CHO cells stably expressing GPR6, cAMP assay (Example 24)
[5] = CHO cells stably expressing GPR3, cAMP assay (Example 24)
[6] = CHO cells stably expressing GPR6, cAMP assay
[7] = CHO cells stably expressing GPR3, cAMP assay

T2 sequence (P46089 whole entry, species assumed): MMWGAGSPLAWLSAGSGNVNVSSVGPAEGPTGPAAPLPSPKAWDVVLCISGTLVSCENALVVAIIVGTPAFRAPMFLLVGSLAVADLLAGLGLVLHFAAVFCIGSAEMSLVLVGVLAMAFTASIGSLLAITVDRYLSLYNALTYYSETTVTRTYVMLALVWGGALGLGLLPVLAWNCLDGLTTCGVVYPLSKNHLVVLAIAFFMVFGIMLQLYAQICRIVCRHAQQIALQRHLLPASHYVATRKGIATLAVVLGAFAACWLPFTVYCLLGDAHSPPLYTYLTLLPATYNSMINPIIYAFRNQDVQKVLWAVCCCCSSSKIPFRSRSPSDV
T1 sequence (P46095 whole entry): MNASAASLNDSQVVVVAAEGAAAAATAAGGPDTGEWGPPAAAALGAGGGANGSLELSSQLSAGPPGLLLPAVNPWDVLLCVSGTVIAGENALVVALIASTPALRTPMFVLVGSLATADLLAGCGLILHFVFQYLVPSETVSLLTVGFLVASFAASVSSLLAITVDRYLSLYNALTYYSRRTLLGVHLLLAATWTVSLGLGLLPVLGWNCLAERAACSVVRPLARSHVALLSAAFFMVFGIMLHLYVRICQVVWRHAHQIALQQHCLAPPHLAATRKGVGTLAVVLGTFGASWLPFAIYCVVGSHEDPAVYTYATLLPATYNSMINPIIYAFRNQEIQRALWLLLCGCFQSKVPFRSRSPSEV

IC50 [1, 4] [nM] | IC50 [2, 5] [nM] | IC50 ([1]; procedure of Example 24) [nM] | IC50 ([2]; procedure of Example 24) [nM] | also measured | Compound
– | – | – | – | IC50 [1, 3]: 1000 to 30000 nM; IC50 [2, 3]: 1000 to 30000 nM | CC(=O)N1CCc2nc(N3CCC(Oc4ccc(F)cc4F)CC3)c(-c3cncc(=O)[nH]3)nc2C1 [Compound 12, 6-{6-acetyl-2-[4-(2,4-difluorophenoxy)piperidin-1-yl]-5H,6H,7H,8H-pyrido[3,4-b]pyrazin-3-yl}-1,2-dihydropyrazin-2-one]
– | – | – | – | IC50 [1, 3]: 100 to 1000 nM; IC50 [2, 3]: 1000 to 30000 nM | Fc1ccc(Cl)cc1CN1CCN(c2nc3ccncc3nc2-c2cn[nH]c2)CC1 [Compound 4, 1-[(5-chloro-2-fluorophenyl)methyl]-4-[3-(1H-pyrazol-4-yl)pyrido[3,4-b]pyrazin-2-yl]piperazine]
100 to 1000 | ≥ 30000 | – | – | – | O=C(CO)N1CCc2nc(N3CCC(Oc4ccc(F)cc4F)CC3)c(-c3cnn(C4CCCCO4)c3)nc2C1 (stereo not shown) [Compound 204, 1-{2-[4-(2,4-difluorophenoxy)piperidin-1-yl]-3-[1-(oxan-2-yl)-1H-pyrazol-4-yl]-5H,6H,7H,8H-pyrido [3,4-b]pyrazin-6-yl}-2-hydroxyethan-1-one]
– | – | < 100 | 100 to 1000 | – | COC[C@H](O)c1cc2nc(-c3cnn(C)c3)c(N3CCC(Oc4ccc(F)cc4F)CC3)nc2cn1 (single isomer, unassigned) [Compound 681]
1000 to 30000 | 1000 to 30000 | – | – | – | CC(=O)N1CC=C(c2nc3c(nc2N2CCC(Oc4ccc(F)cc4F)CC2)CCN(C(C)=O)C3)C1 [Compound 72, 1-(3-{6-acetyl-2-[4-(2,4-difluorophenoxy)piperidin-1-yl]-5H,6H,7H,8H-pyrido[3,4-b]pyrazin-3-yl}-2,5-dihydro-1H-pyrrol-1-yl)ethan-1-one]
– | – | 1000 to 30000 | 1000 to 30000 | – | O=C(O)c1cc2nc(-c3cnn(CF)c3)c(N3CCN(Cc4ccc(F)cc4F)CC3)nc2cn1 [Compound 765, 3-{4-[(2,4-difluorophenyl)methyl]-1-piperazinyl}-2-[1-(fluoromethyl)-4-pyrazolyl]-1,4,6-triaza-7-naphthoic acid]
– | – | 100 to 1000 | 1000 to 30000 | – | Cn1cc(-c2nc3cc(C(C)(O)CO)ncc3nc2N2CCC(Oc3ccc(F)cc3F)CC2)cn1 (single isomer, unassigned) [Compound 692]
100 to 1000 | 1000 to 30000 | – | – | – | CC(=O)N1CCc2nc(N3CCC(Oc4ccc(Cl)cc4F)CC3)c(-c3cnn(C)c3)nc2C1 [Compound 456, 1-{2-[4-(4-chloro-2-fluorophenoxy)piperidin-1-yl]-3-(1-methyl-1H-pyrazol-4-yl)-5H,6H,7H,8H-pyrido[3,4-b]pyrazin-6-yl}ethan-1-one]
– | – | 1000 to 30000 | 1000 to 30000 | – | CC(=O)N1CCc2nc(N3CCN(Cc4ccc(OC(F)F)cc4F)CC3)c(-c3cnn(C)c3)nc2C1 [Compound 358, 1-[2-(4-{[4-(difluoromethoxy)-2-fluorophenyl]methyl}piperazin-1-yl)-3-(1-methyl-1H-pyrazol-4-yl)-5H,6H,7H,8H-pyrido[3,4-b]pyrazin-6-yl]ethan-1-one]
1000 to 30000 | 1000 to 30000 | – | – | – | Fc1ccc(OC2CCN(c3nc4cnccc4nc3-c3cnn(C4CCCCO4)c3)CC2)c(F)c1 (stereo not shown) [Compound 97, 4-(2,4-difluorophenoxy)-1-{2-[1-(oxan-2-yl)-1H-pyrazol-4-yl]pyrido[3,4-b]pyrazin-3-yl}piperidine]
– | – | – | – | IC50 [1, 3]: 100 to 1000 nM; IC50 [2, 3]: 1000 to 30000 nM | COc1cncc(-c2nc3c(nc2N2CCC(Oc4ccc(F)cc4F)CC2)CCN(C(C)=O)C3)c1 [Compound 38, 1-{2-[4-(2,4-difluorophenoxy)piperidin-1-yl]-3-(5-methoxypyridin-3-yl)-5H,6H,7H,8H-pyrido[3,4-b]pyrazin-6-yl}ethan-1-one]
– | – | – | – | IC50 [1, 6]: 100 to 1000 nM; IC50 [2, 7]: 1000 to 30000 nM | CC(C)(O)[C@@H](O)c1cc2nc(N3CCN(Cc4ccc(F)cc4F)CC3)c(-c3cnn(CF)c3)nc2cn1 (single isomer, unassigned) [Compound 599]
– | – | – | – | IC50 [1, 6]: ≥ 30000 nM; IC50 [2, 7]: ≥ 30000 nM | CC(=O)N1CCc2nc(N3CCN(Cc4ccc(=O)[nH]c4)CC3)c(-c3cnn(C)c3)nc2C1 [Compound 532, 5-({4-[6-acetyl-3-(1-methyl-4-pyrazolyl)-5,6,7,8-tetrahydro-1,4,6-triaza-2-naphthyl]-1-piperazinyl}methyl)-2(1H)-pyridinone]
– | – | 1000 to 30000 | 1000 to 30000 | – | COc1ccc(CNc2nc(-c3nc4c(nc3N3CCC(Cc5cc(F)ccc5F)CC3)CCN(C(C)=O)C4)ccc2F)cc1 [Compound 701, 1-(2-{4-[(2,5-difluorophenyl)methyl]-1-piperidyl}-3-(5-fluoro-6-{ [(p-methoxyphenyl)methyl]amino}-2-pyridyl)-5,6,7,8-tetrahydro-1,4,6-triaza-6-naphthyl)-1-ethanone]
1000 to 30000 | 1000 to 30000 | – | – | – | CC(=O)N1CCc2nc(N3CCC(Oc4ccc(F)c(F)c4)CC3)c(-c3cnn(C)c3)nc2C1 [Compound 453, 1-{2-[4-(3,4-difluorophenoxy)piperidin-1-yl]-3-(1-methyl-1H-pyrazol-4-yl)-5H,6H,7H,8H-pyrido[3,4-b]pyrazin-6-yl}ethan-1-one]
– | – | 1000 to 30000 | 1000 to 30000 | – | CC(=O)N1CCc2nc(C3CCC(Oc4ccc(F)cc4F)CC3)c(-c3ncco3)nc2C1 (stereo not shown) [Compound 302, 1-{2-[4-(2,4-difluorophenoxy)cyclohexyl]-3-(1,3-oxazol-2-yl)-5H,6H,7H,8H-pyrido[3,4-b]pyrazin-6-yl}ethan-1-one]
100 to 1000 | 1000 to 30000 | – | – | – | COc1ncc(-c2nc3c(nc2N2CCC(Oc4ccc(F)cc4F)CC2)CCN(C(C)=O)C3)nc1OC [Compound 215, 1-{2-[4-(2,4-difluorophenoxy)piperidin-1-yl]-3-(5,6-dimethoxypyrazin-2-yl)-5H,6H,7H,8H-pyrido[3,4-b]pyrazin-6-yl}ethan-1-one]
– | – | 100 to 1000 | 1000 to 30000 | – | CC(C)(O)[C@@](C)(O)c1cc2nc(-c3cnn(CF)c3)c(N3CCC(Oc4ccc(F)cc4F)CC3)nc2cn1 (single isomer, unassigned) [Compound 783]
– | – | 1000 to 30000 | 1000 to 30000 | – | CC(=O)N1CCc2nc(N3CCC(COc4ccccc4)C3)c(-c3cnn(C)c3)nc2C1 (stereo not shown) [Compound 363, 1-[3-(1-methyl-1H-pyrazol-4-yl)-2-[3-(phenoxymethyl)pyrrolidin-1-yl]-5H,6H,7H,8H-pyrido[3,4-b]pyrazin-6-yl]ethan-1-one]
1000 to 30000 | 1000 to 30000 | – | – | – | CC(=O)N1CCc2nc(N3CCC(Oc4ccc(F)cc4F)CC3)c(-c3cn[nH]c3C3CC3)nc2C1 [Compound 62, 1-[3-(5-cyclopropyl-1H-pyrazol-4-yl)-2-[4-(2,4-difluorophenoxy)piperidin-1-yl]-5H,6H,7H,8H-pyrido[3,4-b]pyrazin-6-yl]ethan-1-one]
– | – | 100 to 1000 | 100 to 1000 | – | CC(C)(O)C(O)c1cc2nc(N3CCN(Cc4ccc(F)cc4F)CC3)c(-c3ccc(F)c(N)n3)nc2cn1 (stereo not shown) [Compound 791, 1-[3-(6-amino-5-fluoro-2-pyridyl)-2-{4-[(2,4-difluorophenyl)methyl]-1-piperazinyl}-1,4,6-triaza-7-naphthyl]-2-methyl-1,2-propanediol]
100 to 1000 | 1000 to 30000 | – | – | – | CCn1cc(-c2nc3c(nc2N2CCC(Oc4ccc(F)cc4F)CC2)CCN(S(N)(=O)=O)C3)cn1 [Compound 478, 2-(4-(2,4-difluorophenoxy)piperidin-1-yl)-3-(1-ethyl-1H-pyrazol-4-yl)-7,8-dihydropyrido[3,4-b]pyrazine-6(5H)-sulfonamide]
100 to 1000 | 1000 to 30000 | – | – | – | CCn1ccc(-c2nc3c(nc2N2CCC(Oc4ccc(F)cc4F)CC2)CCN(C(C)=O)C3)n1 [Compound 448, 1-{2-[4-(2,4-difluorophenoxy)piperidin-1-yl]-3-(1-ethyl-1H-pyrazol-3-yl)-5H,6H,7H,8H-pyrido[3,4-b]pyrazin-6-yl}ethan-1-one]
– | – | – | – | IC50 [1, 6]: 100 to 1000 nM; IC50 [2, 7]: 1000 to 30000 nM | CC(=O)N1CCc2nc(N3CCC(Oc4ccc(F)cc4F)CC3)c(C3CC3CO)nc2C1 (stereo not shown) [Compound 489, 1-(2-(4-(2,4-difluorophenoxy)piperidin-1-yl)-3-(2-(hydroxymethyl)cyclopropyl)-7,8-dihydropyrido[3,4-b]pyrazin-6(5H)-yl)ethan-1-one]
– | – | < 100 | 1000 to 30000 | – | Cn1cc(-c2nc3cnc([C@@H](O)C(C)(C)O)cc3nc2N2CCC(=Cc3ccc(F)cc3F)CC2)cn1 (single isomer, unassigned) [Compound 719]
– | – | – | – | IC50 [1, 3]: 1000 to 30000 nM; IC50 [2, 3]: 100 to 1000 nM | N#Cc1ccc2nc(N3CCN(Cc4cc(Cl)ccc4Cl)CC3)c(-c3ncc[nH]3)nc2c1 [Compound 27, 2-{4-[(2,5-dichlorophenyl)methyl]piperazin-1-yl}-3-(1H-imidazol-2-yl)quinoxaline-6-carbonitrile]
≥ 30000 | 1000 to 30000 | – | – | – | CC(=O)N1CCc2nc(N3CCC(C(=O)N4CCOCC4)C3)c(-c3cnn(C)c3)nc2C1 (stereo not shown) [Compound 389, 1-[3-(1-methyl-1H-pyrazol-4-yl)-2-[3-(morpholine-4-carbonyl)pyrrolidin-1-yl]-5H,6H,7H,8H-pyrido[3,4-b]pyrazin-6-yl]ethan-1-one]
1000 to 30000 | 1000 to 30000 | – | – | – | CC(=O)N1CCc2nc(N3CCC(Oc4c(F)cccc4F)CC3)c(-c3cnn(C)c3)nc2C1 [Compound 454, 1-{2-[4-(2,6-difluorophenoxy)piperidin-1-yl]-3-(1-methyl-1H-pyrazol-4-yl)-5H,6H,7H,8H-pyrido[3,4-b]pyrazin-6-yl}ethan-1-one]
1000 to 30000 | 1000 to 30000 | – | – | – | N#CN1CCc2nc(N3CCC(Oc4ccc(F)cc4F)CC3)c(-c3cnn(C4CCCCO4)c3)nc2C1 (stereo not shown) [Compound 200, 2-[4-(2,4-difluorophenoxy)piperidin-1-yl]-3-[1-(oxan-2-yl)-1H-pyrazol-4-yl]-5H,6H,7H,8H-pyrido[3,4-b]pyrazine-6-carbonitrile]
